Results reported in EP0187355A1, “Process for preparing beta-lactam antibiotics” (E.R. Squibb & Sons, Inc., priority 1981, dated 1982).
Structures can show the parent of a compound that is named as a salt.

Tests used:
Test in all cases: MIC, agar dilution
Type in all cases: cell-based
[1] = test system: Acinetobacter calcoaceticus, 8333; details: Acinetobacter calcoaceticus, 8333, 18 h, K-10 agar, 10^4 CFU, 37°C, read-out: M.I.C.
In short: (§1)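 Test strains are first grown in broth at 37°C for 18–20 hours, then diluted 1:100. Compounds are serially halved and mixed into K-10 agar at final levels from 100 to 0.05 µg/ml. Each plate receives about 10^4 CFU per organism, and growth is scored after 18 hours at 37°C.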

[2] = test system: Citrobacter freundii, 9518; details: K-10 agar, 10^4 CFU, 37°C, 18 hours, read-out: M.I.C.
In short: as §1

[3] = test system: Enterobacter aerogenes, 10078; details: Klebsiella aerogenes, 10078, 18 h, Enterobacter aerogenes, 10078; K-10 agar, 10^4 CFU, 37°C, 18 hours; read-out: M.I.C.
In short: as §1

Escherichia coli, 10857 = details: Escherichia coli, 10857, 18 h, K-10 agar, 10^4 CFU, 37°C
In short: as §1

Escherichia coli, 10896 = details: K-10 agar, 10^4 CFU, 37°C, 18 hours
In short: as §1

Escherichia coli, 10909 = details: K-10 agar, 10^4 CFU, 37°C, 18 hours
In short: as §1

Escherichia coli, 8294 = details: Escherichia coli, 8294, 18 h, K-10 agar, 10^4 CFU, 37°C
In short: as §1

[4] = test system: Klebsiella aerogenes, 10440; details: K-10 agar, 10^4 CFU, 37°C, 18 hours, read-out: M.I.C.
In short: as §1

[5] = test system: Klebsiella pneumoniae, 9527; details: Klebsiella pneumoniae, 9527, 18 h, K-10 agar, 10^4 CFU, 37°C, read-out: M.I.C.
In short: as §1

Proteus mirabilis, 3855 = details: Proteus mirabilis, 3855, 18 h, K-10 agar, 10^4 CFU, 37°C, read-out: M.I.C.
In short: as §1

Proteus rettgeri, 8479 = details: Providencia rettgeri, K-10 agar, 10^4 CFU, 37°C, 18 hours, read-out: M.I.C.
In short: as §1

Proteus vulgaris, 9416 = details: K-10 agar, 10^4 CFU, 37°C, 18 hours, read-out: M.I.C.
In short: as §1

[6] = test system: Pseudomonas aeruginosa, 8329; details: K-10 agar, 10^4 CFU, 37°C, 18 hours, read-out: M.I.C.
In short: as §1

[7] = test system: Pseudomonas aeruginosa, 9545; details: Pseudomonas aeruginosa, 9545, 18 h, K-10 agar, 10^4 CFU, 37°C, read-out: M.I.C.
In short: as §1

Salmonella typhosa, 1195 = details: Salmonella enterica, TYPHOSA, 18 h, K-10 agar, 10^4 CFU, 37°C
In short: as §1

[8] = test system: Serratia marcescens, 9783; details: Serratia marcescens, 9783, 18 h, K-10 agar, 10^4 CFU, 37°C, read-out: M.I.C.
In short: as §1

Shigella sonnei, 8449 = details: Shigella sonnei, 8449, 18 h, K-10 agar, 10^4 CFU, 37°C
In short: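 Agar dilution in K-10 agar; final drug 100–0.05 µg/ml, twofold steps. Inoculum 10^4 CFU/spot via multipoint inoculator from 18–20 h broth culture diluted 1:100. Incubation 37°C, 18 h; MIC = lowest concentration with no growth.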

[9] = test system: Staphylococcus aureus, 10165; details: Staphylococcus aureus, 10165; K-10 agar, 10^4 CFU, 37°C, 18 hours; read-out: M.I.C.
In short: as §1

[10] = test system: Staphylococcus aureus, 1276; details: Staphylococcus aureus, 1276; K-10 agar, 10^4 CFU, 37°C, 18 hours; read-out: M.I.C.
In short: as §1

[11] = test system: Staphylococcus aureus, 2399; details: Staphylococcus aureus, 2399, 18 h, Staphylococcus aureus, 2399; K-10 agar, 10^4 CFU, 37°C, 18 hours; read-out: M.I.C.
In short: as §1

[12] = test system: Staphylococcus aureus, 2400; details: Staphylococcus aureus, 2400; K-10 agar, 10^4 CFU, 37°C, 18 hours; read-out: M.I.C.
In short: as §1

[13] = test system: Streptococcus faecalis, 9011; details: Enterococcus faecalis; Streptococcus faecalis, 9011; K-10 agar, 10^4 CFU, 37°C, 18 hours; read-out: M.I.C.
In short: as §1

[14] = test system: Enterobacter cloacae, 8236; details: Enterobacter cloacae, 8236, 18 h, K-10 agar, 10^4 CFU, 37°C
In short: (§2)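 Broth cultures grown 18-20 h at 37°C, diluted 1:100 in K-10 broth, applied by multipoint inoculator at 10^4 CFU onto K-10 agar holding twofold compound dilutions, 100 to 0.05 µg/ml final. MIC taken as lowest concentration inhibiting growth.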

Micrococcus luteus, 2495 = details: Micrococcus luteus, 2495, 18 h, K-10 agar, 10^4 CFU, 37°C, read-out: M.I.C.
In short: as §2

[15] = test system: Streptococcus agalactiae, 9287; details: Streptococcus agalactiae, 9287, 18 h, K-10 agar, 10^4 CFU, 37°C, read-out: M.I.C.
In short: as §2

Q: With CON=C(C(=O)NC1C(=O)N(S(=O)(=O)O)C1C)c1csc(N)n1 (racemic) [Example 7, [3α(Z),4α]-3-[[(2-Amino-4-thiazolyl) (methoxy-imino)acetyl]amino]-4-methyl-2-oxo-l-azetidinesulfonic acid, potassium salt] as the compound, how does the MIC [1] read?
A: Its MIC is 50 mg/L.

Q: And the MIC [2]?
A: The MIC was 0.2 mg/L.

Q: What about the MIC [3] of the same compound?
A: The MIC was 0.4 mg/L.

Q: What about the MIC (Escherichia coli, 10857) of the same compound?
A: The MIC was < 0.05 mg/L.

Q: What about the MIC (Escherichia coli, 10896) of the same compound?
A: Its MIC is 0.2 mg/L.

Q: And the MIC (Escherichia coli, 10909)?
A: The MIC was 0.1 mg/L.

Q: What about the MIC (Escherichia coli, 8294) of the same compound?
A: Its MIC is 0.2 mg/L.

Q: And the MIC [4]?
A: Its MIC is 0.4 mg/L.

Q: And the MIC [5]?
A: Its MIC is 0.1 mg/L.

Q: And the MIC (Proteus mirabilis, 3855)?
A: The MIC was < 0.05 mg/L.

Q: What about the MIC (Proteus rettgeri, 8479) of the same compound?
A: Its MIC is < 0.05 mg/L.

Q: And the MIC (Proteus vulgaris, 9416)?
A: Its MIC is < 0.05 mg/L.

Q: What about the MIC [6] of the same compound?
A: Its MIC is > 100 mg/L.

Q: And the MIC [7]?
A: Its MIC is 0.8 mg/L.

Q: And the MIC (Salmonella typhosa, 1195)?
A: The MIC was < 0.05 mg/L.

Q: What about the MIC [8] of the same compound?
A: The MIC was 0.4 mg/L.

Q: What about the MIC (Shigella sonnei, 8449) of the same compound?
A: The MIC was 0.2 mg/L.

Q: What about the MIC [9] of the same compound?
A: Its MIC is > 100 mg/L.

Q: What about the MIC [10] of the same compound?
A: Its MIC is 100 mg/L.

Q: What about the MIC [11] of the same compound?
A: The MIC was 100 mg/L.

Q: And the MIC [12]?
A: Its MIC is 50 mg/L.

Q: What about the MIC [13] of the same compound?
A: Its MIC is > 100 mg/L.

Q: And the MIC [14]?
A: The MIC was 0.2 mg/L.

Q: What about the MIC (Micrococcus luteus, 2495) of the same compound?
A: Its MIC is 6.3 mg/L.

Q: And the MIC [15]?
A: Its MIC is 3.1 mg/L.

Q: CC1(C)C(NC(=O)Cc2ccccc2)C(=O)N1S(=O)(=O)O (racemic) [Example 26, (±)-4,4-Dimethyl-2-oxo-3-[(phenylacetyl)amino]-1-azetidinesulfonic acid, potassium salt] was tested. Which MIC [1] did it give?
A: The MIC was > 100 mg/L.

Q: And the MIC [2]?
A: Its MIC is > 100 mg/L.

Q: And the MIC [3]?
A: The MIC was > 100 mg/L.

Q: What about the MIC (Escherichia coli, 10857) of the same compound?
A: Its MIC is 50 mg/L.

Q: What about the MIC (Escherichia coli, 10896) of the same compound?
A: The MIC was > 100 mg/L.

Q: What about the MIC (Escherichia coli, 10909) of the same compound?
A: Its MIC is > 100 mg/L.

Q: And the MIC (Escherichia coli, 8294)?
A: The MIC was > 100 mg/L.

Q: And the MIC [4]?
A: The MIC was > 100 mg/L.

Q: And the MIC [5]?
A: The MIC was > 100 mg/L.

Q: What about the MIC (Proteus mirabilis, 3855) of the same compound?
A: The MIC was > 100 mg/L.

Q: What about the MIC (Proteus rettgeri, 8479) of the same compound?
A: Its MIC is 100 mg/L.

Q: What about the MIC (Proteus vulgaris, 9416) of the same compound?
A: Its MIC is 100 mg/L.

Q: What about the MIC [6] of the same compound?
A: The MIC was > 100 mg/L.

Q: What about the MIC [7] of the same compound?
A: The MIC was > 100 mg/L.

Q: What about the MIC (Salmonella typhosa, 1195) of the same compound?
A: The MIC was > 100 mg/L.

Q: And the MIC [8]?
A: The MIC was > 100 mg/L.

Q: And the MIC (Shigella sonnei, 8449)?
A: Its MIC is > 100 mg/L.

Q: And the MIC [9]?
A: The MIC was > 100 mg/L.

Q: What about the MIC [10] of the same compound?
A: The MIC was > 100 mg/L.

Q: And the MIC [11]?
A: The MIC was > 100 mg/L.

Q: What about the MIC [12] of the same compound?
A: The MIC was > 100 mg/L.

Q: And the MIC [13]?
A: Its MIC is > 100 mg/L.

Q: What about the MIC [14] of the same compound?
A: The MIC was > 100 mg/L.

Q: And the MIC (Micrococcus luteus, 2495)?
A: The MIC was > 100 mg/L.

Q: And the MIC [15]?
A: The MIC was > 100 mg/L.
